Where “and” joins values, the source holds several entries; their conditions need not be identical. Equal values may be shown once. Inconclusive results and toxic doses are left out. Peptide text beside a SMILES is read from it. * marks the point of attachment. Cbz = O=C(OCc1ccccc1)*; CH2Cl = ClC*
System: P388 leukemia ip, CD2F1 mice, survival T/C
Assay: NCI In Vivo Anticancer Drug Screen. Data for tumor model P388 Leukemia (intraperitoneal) in CD2F1 (CDF1) mice
Details: endpoint: median survival time, higher = longer survival
In short: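 Mice carrying the transplanted tumor received test compound or vehicle. Survival was recorded in each group, and the value is the treated-group measurement divided by that of the vehicle-treated control group.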

[1] = dose: 12.5 mg/kg/injection, schedule: Q01DX009 (ip), vehicle: saline
[2] = dose: 25.0 mg/kg/injection, schedule: Q01DX009 (ip), vehicle: saline
[3] = dose: 50.0 mg/kg/injection, schedule: Q01DX009 (ip), vehicle: saline

In the case of Nc1ncn(C2OC(CO)C(O)C2O)c(=O)n1 (stereo not drawn), the T/C (dose: 0.19 mg/kg/injection, schedule: Q01DX009 (ip), vehicle: saline with Tween-80) was 122 % of control, the T/C (dose: 0.38 mg/kg/injection, schedule: Q01DX009 (ip), vehicle: saline with Tween-80) was 154 % of control and the T/C (dose: 0.75 mg/kg/injection, schedule: Q01DX009 (ip), vehicle: Klucel (hydroxypropylcellulose) (HPC)) was 163 % of control. The T/C (dose: 0.75 mg/kg/injection, schedule: Q01DX009 (ip), vehicle: saline with Tween-80) was 181 % of control, the T/C (dose: 0.75 mg/kg/injection, schedule: Q01DX009 (ip), vehicle: saline) was 166 % of control and 172 % of control and 173 % of control and the T/C (dose: 1.0 mg/kg/injection, schedule: Q01DX005 (ip), vehicle: saline) was 172 % of control. The T/C (dose: 1.0 mg/kg/injection, schedule: Q01DX005 (ip), vehicle: water) was 150 % of control, the T/C (dose: 1.5 mg/kg/injection, schedule: Q01DX009 (ip), vehicle: Klucel (hydroxypropylcellulose) (HPC)) was 190 % of control and the T/C (dose: 1.5 mg/kg/injection, schedule: Q01DX009 (ip), vehicle: saline with Tween-80) was 195 % of control. For the same compound, the T/C (dose: 1.5 mg/kg/injection, schedule: Q01DX009 (ip), vehicle: saline) was 171 % of control and 185 % of control, the T/C (dose: 1.56 mg/kg/injection, schedule: Q01DX009 (ip), vehicle: saline) was 224 % of control and the T/C (dose: 2.0 mg/kg/injection, schedule: Q01DX005 (ip), vehicle: water) was 174 % of control. For the same compound, the T/C (dose: 2.0 mg/kg/injection, schedule: Q01DX009 (ip), vehicle: saline) was 209 % of control and 210 % of control, the T/C (dose: 2.59 mg/kg/injection, schedule: Q04DX003 (ip), vehicle: saline) was 162 % of control and the T/C (dose: 2.7 mg/kg/injection, schedule: Q01DX009 (ip), vehicle: saline) was 233 % of control. The T/C (dose: 3.0 mg/kg/injection, schedule: Q01DX009 (ip), vehicle: Klucel (hydroxypropylcellulose) (HPC)) was 245 % of control, the T/C (dose: 3.13 mg/kg/injection, schedule: Q01DX009 (ip), vehicle: saline) was 262 % of control and the T/C (dose: 4.0 mg/kg/injection, schedule: Q01DX005 (ip), vehicle: water) was 215 % of control. For the same compound, the T/C (dose: 4.0 mg/kg/injection, schedule: Q01DX009 (ip), vehicle: saline) was 245 % of control and 265 % of control, the T/C (dose: 4.32 mg/kg/injection, schedule: Q04DX003 (ip), vehicle: saline) was 178 % of control and the T/C (dose: 4.5 mg/kg/injection, schedule: Q01DX009 (ip), vehicle: saline) was 282 % of control. For the same compound, the T/C (dose: 6.0 mg/kg/injection, schedule: Q01DX009 (ip), vehicle: Klucel (hydroxypropylcellulose) (HPC)) was 95 % of control, the T/C (dose: 7.2 mg/kg/injection, schedule: Q04DX003 (ip), vehicle: saline) was 200 % of control and the T/C (dose: 8.0 mg/kg/injection, schedule: Q01DX005 (ip), vehicle: saline) was 252 % of control and 256 % of control and 290 % of control. For the same compound, the T/C (dose: 8.0 mg/kg/injection, schedule: Q01DX005 (ip), vehicle: water) was 66 % of control, the T/C (dose: 8.64 mg/kg/injection, schedule: Q04DX002 (ip), vehicle: saline) was 160 % of control and the T/C (dose: 12.0 mg/kg/injection, schedule: Q04DX003 (ip), vehicle: saline) was 247 % of control. The T/C (dose: 12.5 mg/kg/injection, schedule: Q01DX005 (ip), vehicle: saline) was 162 % of control, the T/C [1] was 196 % of control and the T/C (dose: 14.4 mg/kg/injection, schedule: Q04DX002 (ip), vehicle: saline) was 175 % of control. For the same compound, the T/C (dose: 16.0 mg/kg/injection, schedule: Q01DX005 (ip), vehicle: saline) was 273 % of control, the T/C (dose: 20.0 mg/kg/injection, schedule: Q01DX009 (ip), vehicle: saline) was 223 % of control and the T/C (dose: 20.0 mg/kg/injection, schedule: Q04DX003 (ip), vehicle: saline) was 279 % of control. The T/C (dose: 24.0 mg/kg/injection, schedule: Q04DX002 (ip), vehicle: saline) was 200 % of control, the T/C (dose: 25.0 mg/kg/injection, schedule: Q01DX005 (ip), vehicle: saline) was 176 % of control and the T/C [2] was 196 % of control. For the same compound, the T/C (dose: 33.0 mg/kg/injection, schedule: Q01DX009 (ip), vehicle: saline) was 233 % of control, the T/C (dose: 40.0 mg/kg/injection, schedule: Q04DX002 (ip), vehicle: saline) was 217 % of control and the T/C (dose: 44.0 mg/kg/injection, schedule: Q01DX005 (ip), vehicle: saline) was 178 % of control. For the same compound, the T/C (dose: 49.0 mg/kg/injection, schedule: Q01DX001 (ip), vehicle: saline) was 165 % of control, the T/C (dose: 50.0 mg/kg/injection, schedule: Q01DX005 (ip), vehicle: saline) was 189 % of control and the T/C [3] was 215 % of control. For the same compound, the T/C (dose: 67.0 mg/kg/injection, schedule: Q01DX005 (ip), vehicle: saline) was 181 % of control, the T/C (dose: 100.0 mg/kg/injection, schedule: Q01DX005 (ip), vehicle: saline) was 182 % of control and 196 % of control and the T/C (dose: 110.0 mg/kg/injection, schedule: Q01DX001 (ip), vehicle: saline) was 100 % of control. For the same compound, the T/C (dose: 150.0 mg/kg/injection, schedule: Q01DX005 (ip), vehicle: saline) was 187 % of control, the T/C (dose: 200.0 mg/kg/injection, schedule: Q01DX005 (ip), vehicle: saline) was 185 % of control and 214 % of control and the T/C (dose: 200.0 mg/kg/injection, schedule: Q01DX009 (ip), vehicle: saline) was 110 % of control. For the same compound, the T/C (dose: 400.0 mg/kg/injection, schedule: Q01DX009 (ip), vehicle: saline) was 88 % of control.
With C=C1C(=O)O[C@@H]2C[C@@H](C)[C@@H]3[C@@H](OC(C)=O)[C@@H](OC(C)=O)[C@H](OC(C)=O)[C@@]3(C)C[C@H]12 the T/C (dose: 9.5 mg/kg/injection, schedule: Q01DX005 (ip), vehicle: Klucel (hydroxypropylcellulose) (HPC)) was 102 % of control, the T/C (dose: 19.0 mg/kg/injection, schedule: Q01DX005 (ip), vehicle: Klucel (hydroxypropylcellulose) (HPC)) was 100 % of control and the T/C (dose: 38.0 mg/kg/injection, schedule: Q01DX005 (ip), vehicle: Klucel (hydroxypropylcellulose) (HPC)) was 106 % of control. For the same compound, the T/C (dose: 76.0 mg/kg/injection, schedule: Q01DX005 (ip), vehicle: Klucel (hydroxypropylcellulose) (HPC)) was 97 % of control.
CN1C(c2ccccc2)=C(C#N)C(=O)CC(c2ccc(Cl)cc2)N1C (stereo not drawn) was tested, and the T/C (dose: 60.0 mg/kg/injection, schedule: Q01DX005 (ip), vehicle: saline with Tween-80) was 102 % of control, the T/C (dose: 120.0 mg/kg/injection, schedule: Q01DX005 (ip), vehicle: saline with Tween-80) was 91 % of control and the T/C (dose: 240.0 mg/kg/injection, schedule: Q01DX005 (ip), vehicle: saline with Tween-80) was 101 % of control.
In the case of CCCCNC(=S)NNc1nc(N(CC)CC)nc(N(CC)CC)n1, the T/C (dose: 100.0 mg/kg/injection, schedule: Q04DX002 (ip), vehicle: saline with Tween-80) was 99 % of control and the T/C (dose: 200.0 mg/kg/injection, schedule: Q04DX002 (ip), vehicle: saline with Tween-80) was 99 % of control.
CC(=N\O)/C(C)=N/O.CC(=N\O)/C(C)=N/O.[Cl][Rh][Cl] was tested, and the T/C (dose: 200.0 mg/kg/injection, schedule: Q04DX003 (ip), vehicle: saline) was 100 % of control and the T/C (dose: 400.0 mg/kg/injection, schedule: Q04DX003 (ip), vehicle: saline) was 95 % of control.
With CN(C)CCCN1c2ccc(O)cc2Sc2ccc(Cl)cc21 the T/C (dose: 25.0 mg/kg/injection, schedule: Q04DX003 (ip), vehicle: saline with Tween-80) was 100 % of control, the T/C (dose: 50.0 mg/kg/injection, schedule: Q04DX003 (ip), vehicle: saline with Tween-80) was 95 % of control and the T/C (dose: 100.0 mg/kg/injection, schedule: Q04DX003 (ip), vehicle: saline with Tween-80) was 95 % of control.
CC(C)CC(NC(=O)OCc1ccccc1)C(=O)NC(Cc1ccccc1)C(=O)CCl (stereo not drawn) (Cbz-Leu-Phe-CH2Cl; configuration not given here) was tested, and the T/C (dose: 6.25 mg/kg/injection, schedule: Q01DX009 (ip), vehicle: saline) was 107 % of control, the T/C [1] was 106 % of control and the T/C [2] was 111 % of control. For the same compound, the T/C [3] was 113 % of control and the T/C (dose: 100.0 mg/kg/injection, schedule: Q01DX009 (ip), vehicle: saline) was 120 % of control.
With COc1ccc2c(C)cc(N/N=C(\C)c3cn(C)n(-c4ccccc4)c3=O)nc2c1 the T/C (dose: 12.5 mg/kg/injection, schedule: Q01DX005 (ip), vehicle: Klucel (hydroxypropylcellulose) (HPC)) was 98 % of control, the T/C (dose: 25.0 mg/kg/injection, schedule: Q01DX005 (ip), vehicle: Klucel (hydroxypropylcellulose) (HPC)) was 95 % of control and the T/C (dose: 50.0 mg/kg/injection, schedule: Q01DX005 (ip), vehicle: Klucel (hydroxypropylcellulose) (HPC)) was 101 % of control and 93 % of control. For the same compound, the T/C (dose: 100.0 mg/kg/injection, schedule: Q01DX005 (ip), vehicle: Klucel (hydroxypropylcellulose) (HPC)) was 110 % of control.
COC(=O)c1cccc2c1OCO2 was tested, and the T/C (dose: 100.0 mg/kg/injection, schedule: Q01DX009 (ip), vehicle: saline with Tween-80) was 100 % of control, the T/C (dose: 200.0 mg/kg/injection, schedule: Q01DX009 (ip), vehicle: saline with Tween-80) was 100 % of control and the T/C (dose: 400.0 mg/kg/injection, schedule: Q01DX009 (ip), vehicle: saline with Tween-80) was 100 % of control.
For Cc1c([N+](=O)[O-])cc(Br)c2ccccc12, the T/C (dose: 25.0 mg/kg/injection, schedule: Q01DX009 (ip), vehicle: water) was 108 % of control, the T/C (dose: 50.0 mg/kg/injection, schedule: Q01DX009 (ip), vehicle: water) was 94 % of control and the T/C (dose: 100.0 mg/kg/injection, schedule: Q01DX009 (ip), vehicle: water) was 93 % of control.

— PubChem BioAssay AID330 (DTP/NCI, 2004)
